Patent publication US9181266B2, “2-piperidin-1-yl-acetamide compounds for use as tankyrase inhibitors” (NOVARTIS AG, priority 2011, dated 2015)

Assays:
[1] = test system: Wnt ligand-induced signaling in HEK293 cells; experiment: Wnt-responsive Super-TOpFlash (STF) luciferase reporter gene assay; assay type: cell-based; conditions: Homo sapiens, Wnt3A condition medium
Protocol: Cellular Reporter Gene Assay to Determine Compound Inhibition of Wnt Signaling Activity
Compound activity in inhibiting Wnt ligand-induced signaling was measured using a Wnt-responsive Super-TOpFlash (STF) luciferase reporter gene assay in HEK293 cells. On day 1 of the assay, cells were plated at a density of 8000 cells per well of 384-well plate in 25 μl medium containing 5% fetal bovine serum (FBS). On the second day, […] condition medium (CM) produced from mouse L cells was added to the cells to induce Wnt signaling, followed by addition of 5 μL of compounds each well in 10-point serial dilution. On the third day, the luciferase activity was measured by the Bright-Glo™ Luciferase Assay System following manufacture's protocol (Promega, E2620). The Inhibition was calculated as: (Maximum Wnt-induced signaling−Sample)/(Maximum Wnt-induced signaling−Background)*100. “Maximum Wnt-induced signaling” is the STF signal level induced by 20% Wnt3A CM without compound; and “Background” is the STF signal level without the addition of Wnt3A CM or compound.

[2] = test system: Non-small lung cancer ABC-1 cells; experiment: Cellular proliferation assay (CellTiter-Glo); assay type: cell-based; conditions: Homo sapiens, 72 h; ABC-1 cells, 3 days of compound treatment; read-out: ABC-1 IC50
Protocol: Cellular Proliferation Assay to Determine Compound Inhibition of Cancer Cell Growth
Viable cells were measured after 3 days of compound treatment using the CellTiter-Glo assay (Promega, G7570). Assay was performed following the manufacture protocol.

[3] = biological target: tankyrase 2 protein PARP domain, TNKS2P (Homo sapiens (Human), UniProt Q9H2K2); experiment: TNKS2 autoparsylation assay (LC/MS detection of nicotinamide); conditions: read-out: TNKS2 AP IC50, 20 nM enzyme, 250 μM β-NAD+, 60 min
Chain of tankyrase 2 protein PARP domain, TNKS2P (Q9H2K2 959-1164): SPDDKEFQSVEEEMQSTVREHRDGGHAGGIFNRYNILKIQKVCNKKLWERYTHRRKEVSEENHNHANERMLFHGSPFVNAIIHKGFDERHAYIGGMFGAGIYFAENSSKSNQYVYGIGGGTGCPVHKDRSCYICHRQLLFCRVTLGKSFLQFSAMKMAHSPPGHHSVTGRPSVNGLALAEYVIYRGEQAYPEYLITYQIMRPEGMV
Protocol: Biochemical Assay to Determine Compound Inhibition of TNKS Enzyme Activity
The autoparsylation activity of the TNKS 1/2 or PARP1/2 enzymes was measured by the liquid chromatography-mass spectrometry (LC/MS) detection of nicotinamide as readout. Compound activity in inhibiting the TNKS and PARP autoparsylation was evaluated by IC50 measurements. […] For the background control wells, 10 μL of the 5× quenching solution per well was added prior to the addition of β-NAD^+. The % Inhibition was calculated as: (Control−Sample)/(Control−Background)*100.

[4] = biological target: human tankyrase 1 PARP catalytic domain, TNKS1P (Homo sapiens (Human), UniProt O95271); experiment: TNKS1 autoparsylation assay (LC/MS detection of nicotinamide); conditions: read-out: TNKS1 AP IC50, 20 nM enzyme, 250 μM β-NAD+, 60 min
Chain of human tankyrase 1 PARP catalytic domain, TNKS1P (O95271 1112-1317): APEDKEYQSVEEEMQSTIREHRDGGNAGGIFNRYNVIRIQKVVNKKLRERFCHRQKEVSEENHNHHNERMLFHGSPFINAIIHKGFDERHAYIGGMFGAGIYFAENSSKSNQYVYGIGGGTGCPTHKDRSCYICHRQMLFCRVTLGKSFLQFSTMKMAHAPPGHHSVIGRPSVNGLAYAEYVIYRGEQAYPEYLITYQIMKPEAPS

[5] = test system: Axin2 protein in SW480 cells; experiment: Cellular ELISA assay of Axin2 protein stabilization; assay type: cell-based; conditions: Homo sapiens, 24 hrs, read-out: Axin AC50
Protocol: Cellular ELISA Assay to Determine Compound Effect on Stabilizing the Axin2 Protein Compound activity in stabilizing the Axin2 protein was measured by Sandwich Enzyme-Linked Immuosorbent (ELISA) assay in the colorectal cell line SW480. 30,000 SW480 cells were seeded per well in 96-well plate and incubated overnight prior to compound treatment. […] Cells were then washed with 100 μL of cold Phosphate Buffer Saline (PBS), and lysed in 125 μl of cold 1× lysis buffer (Cell Signaling Technology, 9803) supplemented with Protease inhibitor (Roche, 11836170) and Phosphatase inhibitors (Sigma, P2850, P5726). For the ELISA assay, anti Axin-2 capture antibody (Strategic Diagnostics) antibody was diluted to a concentration of 1 μg/ml (1:1000) in Carbonate Coating buffer, pH 9.2 (Sigma, C3041-50CAP). […], of the diluted anti Axin-2 capture antibody per well was then used to coat the 96-well ELISA plate (Thermo Electron Corp., MicroLite 1 flat bottom plate #7571) overnight at 4° C. […] After blocking, plates were then washed three times with 300 μl/well of wash solution. 100 μL of prepared SW480 cell lysate was then added to each well and incubated at room temperature for 2 hours while shaking gently. After washing, 100 μL of Biotinylated anti-Axin2 antibody (CST, 2151) was added to each well and incubated room temperature for 2 hours. 100 μL of Streptavidin-HRP (R&D systems, DY998) diluted 1:200 in 1% BSA/PBS was then added in each well and incubate for 30 mins at R/T in the dark.

Compound	IC50 [2] [nM]	IC50 [3] [nM]	IC50 [4] [nM]	IC50 [1] [nM]	AC50 [5] [nM]
O=C(c1ccc(F)cc1)C1CCN(CC(=O)N(Cc2ccccn2)Cc2nc3c(c(=O)[nH]2)COCC3)CC1 [Example 22, 2-(4-(4-Fluorobenzoyl)piperidin-1-yl)-N-((4-oxo-4,5,7,8-tetrahydro-3H-pyrano[4,3-d]pyrimidin-2-yl)methyl)-N-(pyridin-2-ylmethyl)acetamide]	540 ± 280		120 ± 2		360 ± 190
O=C(c1ccc(F)cc1)C1CCN(CC(=O)N(Cc2nc3c(c(=O)[nH]2)COCC3)Cc2cccs2)CC1 [Example 13, 2-(4-(4-Fluorobenzoyl)piperidin-1-yl)-N-((4-oxo-4,5,7,8-tetrahydro-3H-pyrano[4,3-d]pyrimidin-2-yl)methyl)-N-(thiophen-2-ylmethyl)acetamide]	40		15.4 ± 2.3		26 ± 8
C[C@@H](c1ccc(F)cc1)N(Cc1nc2c(c(=O)[nH]1)COCC2)C(=O)CN1CCC(C(=O)c2ccc(F)cc2)CC1 [Example 35, (S)-2-(4-(4-Fluorobenzoyl)piperidin-1-yl)-N-(1-(4-fluorophenyl)ethyl)-N-((4-oxo-4,5,7,8-tetrahydro-3H-pyrano[4,3-d]pyrimidin-2-yl)methyl)acetamide]		68 ± 1	256 ± 4	179 ± 20	
O=C(c1ccc(C(F)(F)F)cc1)C1CCN(CC(=O)N(Cc2nc3c(c(=O)[nH]2)COCC3)CC(F)F)CC1 [Example 75, N-(2,2-Difluoro-ethyl)-N-(4-oxo-3,5,7,8-tetrahydro-4H-pyrano[4,3-d]pyrimidin-2-ylmethyl)-2-[4-(4-trifluoromethyl-benzoyl)-piperidin-1-yl]-acetamide]	6050	17 ± 1	73 ± 5	290 ± 130	
O=C(c1ccc(F)cc1)C1CCN(CC(=O)N(Cc2ccccc2)Cc2nc3c(c(=O)[nH]2)COCC3)CC1 [Example 38, N-Benzyl-2-(4-(4-fluorobenzoyl)piperidin-1-yl)-N-((4-oxo-4,5,7,8-tetrahydro-3H-pyrano[4,3-d]pyrimidin-2-yl)methyl)acetamide]	833		82 ± 1		372 ± 86
O=C(c1ccc(F)cc1)C1CCN(CC(=O)N(Cc2ccncc2)Cc2nc3c(c(=O)[nH]2)COCC3)CC1 [Example 20, 2-(4-(4-Fluorobenzoyl)piperidin-1-yl)-N-((4-oxo-4,5,7,8-tetrahydro-3H-pyrano[4,3-d]pyrimidin-2-yl)methyl)-N-(pyridin-4-ylmethyl)acetamide]		206 ± 2	845 ± 12	2390 ± 250	
O=C(c1ccc(F)cc1)C1CCN(CC(=O)N(Cc2cccnc2)Cc2nc3c(c(=O)[nH]2)COCC3)CC1 [Example 21, 2-(4-(4-Fluorobenzoyl)piperidin-1-yl)-N-((4-oxo-4,5,7,8-tetrahydro-3H-pyrano[4,3-d]pyrimidin-2-yl)methyl)-N-(pyridin-3-ylmethyl)acetamide]		42 ± 1	214 ± 2	460 ± 280	
O=C(c1ccc(F)cc1)C1CCN(CC(=O)N(Cc2nc3c(c(=O)[nH]2)COCC3)Cc2ccc(S(=O)(=O)N3CCOCC3)s2)CC1 [Example 47, 2-[4-(4-Fluoro-benzoyl)-piperidin-1-yl]-N-[5-(morpholine-4-sulfonyl)-thiophen-2-ylmethyl]-N-(4-oxo-3,5,7,8-tetrahydro-4H-pyrano[4,3-d]pyrimidin-2-ylmethyl)-acetamide]		66 ± 2	561 ± 49	1830 ± 390	5000 ± 2300

More lines, main results first:

IC50 [2] [nM]	IC50 [3] [nM]	IC50 [4] [nM]	Compound	IC50 [1] [nM]	AC50 [5] [nM]
8170	188 ± 16	2250 ± 23	O=C(CN1CCC(n2cc(-c3ccccc3)cn2)CC1)NCc1nc2c(c(=O)[nH]1)COCC2 [Example 59, N-(4-Oxo-3,5,7,8-tetrahydro-4H-pyrano[4,3-d]pyrimidin-2-ylmethyl)-2-[4-(4-phenyl-pyrazol-1-yl)-piperidin-1-yl]-acetamide]	3940 ± 120	
32 ± 4		15.5 ± 3.5	COc1ccc(C(=O)C2CCN(CC(=O)N(Cc3nc4c(c(=O)[nH]3)COCC4)CC3CC3)CC2)cc1 [Example 5, N-Cyclopropylmethyl-2-[4-(4-methoxy-benzoyl)-piperidin-1-yl]-N-(4-oxo-3,5,7,8-tetrahydro-4H-pyrano[4,3-d]pyrimidin-2-ylmethyl)-acetamide]		60 ± 60
649	270 ± 10	1210 ± 100	O=C(CN1CCC(c2n[nH]c3cc(F)ccc23)CC1)NCc1nc2c(c(=O)[nH]1)COCC2 [Example 57, 2-[4-(6-Fluoro-1H-indazol-3-yl)-piperidin-1-yl]-N-(4-oxo-3,5,7,8-tetrahydro-4H-pyrano[4,3-d]pyrimidin-2-ylmethyl)acetamide]	207 ± 35	
545		70 ± 7	CC(C)CN(Cc1nc2c(c(=O)[nH]1)COCC2)C(=O)CN1CCC(C(=O)c2ccc(F)cc2)CC1 [Example 26, 2-(4-(4-Fluorobenzoyl)piperidin-1-yl)-N-isobutyl-N-((4-oxo-4,5,7,8-tetrahydro-3H-pyrano[4,3-d]pyrimidin-2-yl)methyl)acetamide]		473 ± 36
		46 ± 1	CCCN(Cc1nc2c(c(=O)[nH]1)COCC2)C(=O)CN1CCC(C(=O)c2ccc(F)cc2)CC1 [Example 34, 2-(4-(4-Fluorobenzoyl)piperidin-1-yl)-N-((4-oxo-4,5,7,8-tetrahydro-3H-pyrano[4,3-d]pyrimidin-2-yl)methyl)-N-propylacetamide]		1010 ± 70
	244 ± 24	761 ± 18	O=C(CN1CCC(C(=O)N2CCc3c(Cl)cccc3C2)CC1)NCc1nc2c(c(=O)[nH]1)COCC2 [Example 81, 2-(4-(5-Chloro-1,2,3,4-tetrahydroisoquinoline-2-carbonyl)piperidin-1-yl)-N-((4-oxo-4,5,7,8-tetrahydro-3H-pyrano[4,3-d]pyrimidin-2-yl)methyl)acetamide]	> 10000	
> 10000	311 ± 39	1490 ± 50	COc1ccc2c(C3CCN(CC(=O)NCc4nc5c(c(=O)[nH]4)COCC5)CC3)n[nH]c2c1 [Example 58, 2-[4-(6-Methoxy-1H-indazol-3-yl)-piperidin-1-yl]-N-(4-oxo-3,5,7,8-tetrahydro-4H-pyrano[4,3-c]pyrimidin-2-ylmethyl)-acetamide]	4500 ± 400	
		241 ± 30	CN(Cc1nc2c(c(=O)[nH]1)COCC2)C(=O)CN1CCC(C(=O)c2ccc(F)cc2)CC1 [Example 30]		6000 ± 500
641	89 ± 3	548 ± 39	COc1ccc(-c2nnc(C3CCN(CC(=O)NCc4nc5c(c(=O)[nH]4)COCC5)CC3)o2)cc1 [Example 56, 2-{4-[5-(4-Methoxy-phenyl)-[1,3,4]oxadiazol-2-yl]-piperidin-1-yl}-N-(4-oxo-3,5,7,8-tetrahydro-4H-pyrano[4,3-d]pyrimidin-2-ylmethyl)-acetamide]	207 ± 21	
	31200	> 19000	COc1ccc2c(c1)CCCN2C(=O)C1CCN(CC(=O)NCc2nc3c(c(=O)[nH]2)COCC3)CC1 [Example 80, 2-(4-(6-Methoxy-1,2,3,4-tetrahydroquinoline-1-carbonyl)piperidin-1-yl)-N-((4-oxo-4,5,7,8-tetrahydro-3H-pyrano[4,3-d]pyrimidin-2-yl)methyl)acetamide]	6400 ± 1100	
5850	386 ± 7	3800 ± 100	COc1ccc(-c2cnn(C3CCN(CC(=O)NCc4nc5c(c(=O)[nH]4)COCC5)CC3)c2)cc1 [Example 60, 2-{4-[4-(4-Methoxy-phenyl)-pyrazol-1-yl]-piperidin-1-yl}-N-(4-oxo-3,5,7,8-tetrahydro-4H-pyrano[4,3-d]pyrimidin-2-ylmethyl)-acetamide]	1100 ± 110	
